Data taken from PMC12155096 (International Journal of Molecular Sciences, 2025).
Structures can show the parent of a compound that is named as a salt.

molecular target: human CYP2D6 (Homo sapiens, UniProt P10635); assay: biochemical; details: not given
Sequence (P10635 whole entry): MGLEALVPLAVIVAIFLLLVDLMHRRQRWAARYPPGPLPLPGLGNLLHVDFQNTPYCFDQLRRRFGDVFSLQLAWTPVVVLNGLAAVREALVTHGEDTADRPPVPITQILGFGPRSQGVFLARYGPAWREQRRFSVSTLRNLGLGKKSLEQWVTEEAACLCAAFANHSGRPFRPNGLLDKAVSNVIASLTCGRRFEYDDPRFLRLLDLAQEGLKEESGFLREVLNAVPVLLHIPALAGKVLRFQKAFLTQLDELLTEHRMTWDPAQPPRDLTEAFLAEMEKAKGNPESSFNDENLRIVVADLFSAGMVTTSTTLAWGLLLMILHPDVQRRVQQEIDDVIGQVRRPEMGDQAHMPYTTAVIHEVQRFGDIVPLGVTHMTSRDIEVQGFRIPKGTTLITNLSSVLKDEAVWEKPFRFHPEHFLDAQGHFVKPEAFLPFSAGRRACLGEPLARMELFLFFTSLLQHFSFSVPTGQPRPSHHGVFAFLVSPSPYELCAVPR

SMILES	IC50 [µM]
CN(Cc1cc(Br)cc(Br)c1N)C1CCCCC1 [Bromhexine hydrochloride]	0.01 ± 0.01
CC(C(O)c1ccccc1)N(C)C/C=C/c1ccccc1 (stereo not drawn) [Cinnamedrine]	0.11
CCCCc1cc2ccccc2c(OCCN(C)C)n1 [Dimethisoquin hydrochloride]	4.36
CCc1ccc(C2CCNCC2)cc1 [Enefexine]	0.42
Cc1nc2n(c(=O)c1CCN1CCC(C(=O)c3ccc(F)cc3)CC1)CCS2 [Setoperone]	0.48 ± 0.08

same assay, conditions: CYP2D6 IC50

SMILES	IC50 [µM]
CCCCC(CC)CNCC(CC)CCCC (stereo not drawn) [2,2'-Diethylhexylamine]	0.31
CCN(CC)CCCN(c1ccccc1)C1Cc2ccccc2C1 [Aprindine hydrochloride]	0.44
CN1CC2c3ccccc3Oc3ccc(Cl)cc3C2C1 (stereo not drawn) [Asenapine]	0.09
c1ccc2cc3c(ccc4ccccc43)cc2c1 [Benz(a)anthracene]	50.5
c1ccc2c(c1)-c1cccc3c1c-2cc1ccccc13 [Benzo(b)fluoranthene]	30
c1ccc2c(c1)c1cccc3ccc4cccc2c4c31 [Benzo(e)pyrene]	55.4
CN(Cc1ccc(C(C)(C)C)cc1)Cc1cccc2ccccc12 [Butenafine]	0.39
c1ccc2c(c1)-c1cccc3cccc-2c13 [Fluoranthene]	21.5

molecular target: CYP3A4 (Homo sapiens, UniProt P08684); assay: not given; details: not given
Sequence (P08684 whole entry): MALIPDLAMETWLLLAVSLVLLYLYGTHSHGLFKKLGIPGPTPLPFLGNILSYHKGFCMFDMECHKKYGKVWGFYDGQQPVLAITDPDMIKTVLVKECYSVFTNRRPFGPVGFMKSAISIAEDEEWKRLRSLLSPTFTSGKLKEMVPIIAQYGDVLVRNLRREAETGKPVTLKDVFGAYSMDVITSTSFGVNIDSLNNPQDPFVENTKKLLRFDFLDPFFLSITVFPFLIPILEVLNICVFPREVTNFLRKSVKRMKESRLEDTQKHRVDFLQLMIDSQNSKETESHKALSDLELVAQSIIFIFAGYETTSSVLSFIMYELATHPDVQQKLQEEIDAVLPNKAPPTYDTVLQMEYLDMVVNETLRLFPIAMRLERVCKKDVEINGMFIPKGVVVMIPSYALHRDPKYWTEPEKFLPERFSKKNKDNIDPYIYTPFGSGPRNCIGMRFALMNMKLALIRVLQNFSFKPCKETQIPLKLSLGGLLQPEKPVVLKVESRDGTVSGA

SMILES	CYP3A4 IC50	CYP3A4 IC50 (half-maximal inhibitory concentration)
CCCCC(CC)CNCC(CC)CCCC (stereo not drawn) [2,2'-Diethylhexylamine]	Inactive	
CCN(CC)CCCN(c1ccccc1)C1Cc2ccccc2C1 [Aprindine hydrochloride]	Inactive	
CN1CC2c3ccccc3Oc3ccc(Cl)cc3C2C1 (stereo not drawn) [Asenapine]	Inactive	
c1ccc2cc3c(ccc4ccccc43)cc2c1 [Benz(a)anthracene]	Inactive	
c1ccc2c(c1)-c1cccc3c1c-2cc1ccccc13 [Benzo(b)fluoranthene]	Inactive	
c1ccc2c(c1)c1cccc3ccc4cccc2c4c31 [Benzo(e)pyrene]	Inactive	
CN(Cc1cc(Br)cc(Br)c1N)C1CCCCC1 [Bromhexine hydrochloride]	Inactive	
CN(Cc1ccc(C(C)(C)C)cc1)Cc1cccc2ccccc12 [Butenafine]	Inactive	
CC(C(O)c1ccccc1)N(C)C/C=C/c1ccccc1 (stereo not drawn) [Cinnamedrine]		Inactive
CCCCc1cc2ccccc2c(OCCN(C)C)n1 [Dimethisoquin hydrochloride]		Inactive
CCc1ccc(C2CCNCC2)cc1 [Enefexine]	Inactive	
c1ccc2c(c1)-c1cccc3cccc-2c13 [Fluoranthene]	Inactive	
Cc1nc2n(c(=O)c1CCN1CCC(C(=O)c3ccc(F)cc3)CC1)CCS2 [Setoperone]	Inactive	

molecular target: Photinus pyralis (firefly) luciferase (Photinus pyralis, UniProt P08659); assay: biochemical; format: biochemical; details: not given
Sequence (P08659 whole entry): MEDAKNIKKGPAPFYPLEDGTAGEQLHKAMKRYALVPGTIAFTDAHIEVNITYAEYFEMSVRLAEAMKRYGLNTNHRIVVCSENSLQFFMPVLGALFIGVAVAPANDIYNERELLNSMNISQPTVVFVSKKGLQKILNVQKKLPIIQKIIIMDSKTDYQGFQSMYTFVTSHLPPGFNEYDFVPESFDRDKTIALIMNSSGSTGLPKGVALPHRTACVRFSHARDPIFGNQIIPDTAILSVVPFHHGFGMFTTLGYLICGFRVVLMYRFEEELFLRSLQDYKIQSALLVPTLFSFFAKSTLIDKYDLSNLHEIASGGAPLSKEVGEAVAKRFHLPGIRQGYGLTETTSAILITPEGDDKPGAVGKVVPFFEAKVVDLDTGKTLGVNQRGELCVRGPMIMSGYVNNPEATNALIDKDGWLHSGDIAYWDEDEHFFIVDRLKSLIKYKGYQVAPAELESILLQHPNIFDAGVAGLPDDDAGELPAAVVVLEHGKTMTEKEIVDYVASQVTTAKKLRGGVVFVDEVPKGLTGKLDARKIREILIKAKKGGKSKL

SMILES	Luciferase IC50	IC50 [µM]	Luciferase IC50 (half-maximal inhibitory concentration)
CCCCC(CC)CNCC(CC)CCCC (stereo not drawn) [2,2'-Diethylhexylamine]	Inactive		
CCN(CC)CCCN(c1ccccc1)C1Cc2ccccc2C1 [Aprindine hydrochloride]	Inactive		
CN1CC2c3ccccc3Oc3ccc(Cl)cc3C2C1 (stereo not drawn) [Asenapine]	Inactive		
c1ccc2cc3c(ccc4ccccc43)cc2c1 [Benz(a)anthracene]		6.12	
c1ccc2c(c1)-c1cccc3c1c-2cc1ccccc13 [Benzo(b)fluoranthene]		5.37	
c1ccc2c(c1)c1cccc3ccc4cccc2c4c31 [Benzo(e)pyrene]	Inactive		
CN(Cc1cc(Br)cc(Br)c1N)C1CCCCC1 [Bromhexine hydrochloride]	Inactive		
CN(Cc1ccc(C(C)(C)C)cc1)Cc1cccc2ccccc12 [Butenafine]	Inactive		
CC(C(O)c1ccccc1)N(C)C/C=C/c1ccccc1 (stereo not drawn) [Cinnamedrine]			Inactive
CCCCc1cc2ccccc2c(OCCN(C)C)n1 [Dimethisoquin hydrochloride]			Inactive
CCc1ccc(C2CCNCC2)cc1 [Enefexine]	Inactive		
c1ccc2c(c1)-c1cccc3cccc-2c13 [Fluoranthene]		62.1	
Cc1nc2n(c(=O)c1CCN1CCC(C(=O)c3ccc(F)cc3)CC1)CCS2 [Setoperone]	Inactive		

molecular target: T1, human CYP2C19 (Homo sapiens, UniProt P33261); assay: not given; details: not given
T1 sequence (P33261 whole entry): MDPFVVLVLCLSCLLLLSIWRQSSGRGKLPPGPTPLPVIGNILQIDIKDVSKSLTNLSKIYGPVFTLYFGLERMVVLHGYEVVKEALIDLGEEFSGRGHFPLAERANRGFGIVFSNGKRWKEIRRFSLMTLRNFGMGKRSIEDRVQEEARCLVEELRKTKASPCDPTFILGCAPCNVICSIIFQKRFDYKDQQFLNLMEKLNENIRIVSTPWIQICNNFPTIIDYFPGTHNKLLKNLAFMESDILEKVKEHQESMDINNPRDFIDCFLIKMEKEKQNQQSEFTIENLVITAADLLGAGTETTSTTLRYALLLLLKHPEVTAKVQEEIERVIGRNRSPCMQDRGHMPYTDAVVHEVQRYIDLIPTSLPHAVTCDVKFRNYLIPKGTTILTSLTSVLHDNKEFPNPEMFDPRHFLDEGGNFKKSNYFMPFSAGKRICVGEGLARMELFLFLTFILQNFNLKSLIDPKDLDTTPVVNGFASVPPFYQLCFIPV

SMILES	CYP2C19 IC50
CN1CC2c3ccccc3Oc3ccc(Cl)cc3C2C1 (stereo not drawn) [Asenapine]	Inactive
c1ccc2c(c1)c1cccc3ccc4cccc2c4c31 [Benzo(e)pyrene]	Inactive
CCc1ccc(C2CCNCC2)cc1 [Enefexine]	Inactive
Cc1nc2n(c(=O)c1CCN1CCC(C(=O)c3ccc(F)cc3)CC1)CCS2 [Setoperone]	Inactive

molecular target: T1, human CYP2C19; assay: biochemical; details: not given

SMILES	IC50 [µM]
CN(Cc1cc(Br)cc(Br)c1N)C1CCCCC1 [Bromhexine hydrochloride]	4.36
CC(C(O)c1ccccc1)N(C)C/C=C/c1ccccc1 (stereo not drawn) [Cinnamedrine]	1.46
CCCCc1cc2ccccc2c(OCCN(C)C)n1 [Dimethisoquin hydrochloride]	39.2 ± 6.35

same assay, conditions: CYP2C19 IC50

SMILES	IC50 [µM]
CCCCC(CC)CNCC(CC)CCCC (stereo not drawn) [2,2'-Diethylhexylamine]	51.3
CCN(CC)CCCN(c1ccccc1)C1Cc2ccccc2C1 [Aprindine hydrochloride]	41.3
c1ccc2cc3c(ccc4ccccc43)cc2c1 [Benz(a)anthracene]	15.9
c1ccc2c(c1)-c1cccc3c1c-2cc1ccccc13 [Benzo(b)fluoranthene]	10.5
CN(Cc1ccc(C(C)(C)C)cc1)Cc1cccc2ccccc12 [Butenafine]	9.91
c1ccc2c(c1)-c1cccc3cccc-2c13 [Fluoranthene]	50.2

molecular target: T2, human CYP1A2 (Homo sapiens, UniProt P05177); assay: biochemical; details: not given
T2 sequence (P05177 1-516): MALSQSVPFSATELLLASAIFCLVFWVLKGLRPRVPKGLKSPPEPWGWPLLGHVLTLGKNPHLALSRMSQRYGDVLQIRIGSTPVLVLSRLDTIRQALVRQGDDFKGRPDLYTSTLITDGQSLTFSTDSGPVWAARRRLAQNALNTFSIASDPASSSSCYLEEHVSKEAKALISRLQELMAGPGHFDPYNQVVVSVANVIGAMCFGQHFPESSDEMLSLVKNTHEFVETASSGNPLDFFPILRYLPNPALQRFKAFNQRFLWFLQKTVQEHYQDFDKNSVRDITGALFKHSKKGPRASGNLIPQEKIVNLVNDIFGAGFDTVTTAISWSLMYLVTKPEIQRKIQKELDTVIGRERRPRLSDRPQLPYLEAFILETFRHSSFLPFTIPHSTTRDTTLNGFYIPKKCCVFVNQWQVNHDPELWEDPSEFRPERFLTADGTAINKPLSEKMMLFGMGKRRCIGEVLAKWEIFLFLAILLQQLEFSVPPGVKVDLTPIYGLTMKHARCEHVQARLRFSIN

SMILES	IC50 [µM]
CN(Cc1cc(Br)cc(Br)c1N)C1CCCCC1 [Bromhexine hydrochloride]	28.1 ± 9.38
CC(C(O)c1ccccc1)N(C)C/C=C/c1ccccc1 (stereo not drawn) [Cinnamedrine]	16.4
CCCCc1cc2ccccc2c(OCCN(C)C)n1 [Dimethisoquin hydrochloride]	0.47 ± 0.03
CCc1ccc(C2CCNCC2)cc1 [Enefexine]	23.2
Cc1nc2n(c(=O)c1CCN1CCC(C(=O)c3ccc(F)cc3)CC1)CCS2 [Setoperone]	32.3 ± 4.12

same assay, conditions: CYP1A2 IC50

SMILES	IC50 [µM]
CCCCC(CC)CNCC(CC)CCCC (stereo not drawn) [2,2'-Diethylhexylamine]	47.4
CCN(CC)CCCN(c1ccccc1)C1Cc2ccccc2C1 [Aprindine hydrochloride]	22.2
CN1CC2c3ccccc3Oc3ccc(Cl)cc3C2C1 (stereo not drawn) [Asenapine]	7.55
c1ccc2cc3c(ccc4ccccc43)cc2c1 [Benz(a)anthracene]	0.86
c1ccc2c(c1)-c1cccc3c1c-2cc1ccccc13 [Benzo(b)fluoranthene]	0.69
c1ccc2c(c1)c1cccc3ccc4cccc2c4c31 [Benzo(e)pyrene]	0.1
CN(Cc1ccc(C(C)(C)C)cc1)Cc1cccc2ccccc12 [Butenafine]	24.6
c1ccc2c(c1)-c1cccc3cccc-2c13 [Fluoranthene]	0.73

molecular target: T3, human CYP2C9 (Homo sapiens, UniProt P11712); assay: biochemical; details: not given
T3 sequence (P11712 whole entry): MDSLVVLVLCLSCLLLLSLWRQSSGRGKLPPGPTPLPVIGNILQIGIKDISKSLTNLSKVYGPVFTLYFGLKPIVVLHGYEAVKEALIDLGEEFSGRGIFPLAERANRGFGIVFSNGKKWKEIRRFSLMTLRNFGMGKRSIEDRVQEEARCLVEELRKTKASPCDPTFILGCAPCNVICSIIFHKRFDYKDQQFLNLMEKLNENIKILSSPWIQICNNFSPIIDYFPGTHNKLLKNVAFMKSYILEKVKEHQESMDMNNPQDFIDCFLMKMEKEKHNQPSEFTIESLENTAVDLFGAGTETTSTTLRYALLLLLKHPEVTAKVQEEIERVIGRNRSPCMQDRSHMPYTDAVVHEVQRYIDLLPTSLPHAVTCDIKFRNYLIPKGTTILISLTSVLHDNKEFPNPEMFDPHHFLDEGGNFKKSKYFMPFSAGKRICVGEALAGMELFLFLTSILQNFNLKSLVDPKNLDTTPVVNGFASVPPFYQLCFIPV

SMILES	IC50 [µM]
CN(Cc1cc(Br)cc(Br)c1N)C1CCCCC1 [Bromhexine hydrochloride]	19.5 ± 6.96
CC(C(O)c1ccccc1)N(C)C/C=C/c1ccccc1 (stereo not drawn) [Cinnamedrine]	16.1
c1ccc2c(c1)-c1cccc3cccc-2c13 [Fluoranthene]	67.8
Cc1nc2n(c(=O)c1CCN1CCC(C(=O)c3ccc(F)cc3)CC1)CCS2 [Setoperone]	27.2 ± 16.6

same assay, conditions: CYP2C9 IC50

SMILES	IC50 [µM]
c1ccc2cc3c(ccc4ccccc43)cc2c1 [Benz(a)anthracene]	36.4
CN(Cc1ccc(C(C)(C)C)cc1)Cc1cccc2ccccc12 [Butenafine]	16.3

molecular target: T3, human CYP2C9; assay: not given; details: not given

SMILES	CYP2C9 IC50	CYP2C9 IC50 (half-maximal inhibitory concentration)
CCCCC(CC)CNCC(CC)CCCC (stereo not drawn) [2,2'-Diethylhexylamine]	Inactive	
CCN(CC)CCCN(c1ccccc1)C1Cc2ccccc2C1 [Aprindine hydrochloride]	Inactive	
CN1CC2c3ccccc3Oc3ccc(Cl)cc3C2C1 (stereo not drawn) [Asenapine]	Inactive	
c1ccc2c(c1)-c1cccc3c1c-2cc1ccccc13 [Benzo(b)fluoranthene]	Inactive	
c1ccc2c(c1)c1cccc3ccc4cccc2c4c31 [Benzo(e)pyrene]	Inactive	
CCCCc1cc2ccccc2c(OCCN(C)C)n1 [Dimethisoquin hydrochloride]		Inactive
CCc1ccc(C2CCNCC2)cc1 [Enefexine]	Inactive	
